{
  "source": "patent US11590154B2",
  "about": "“Triple antibiotic fixed-dose combination products, dosing regimen, methods, and kits for treating pulmonary non-tuberculosis mycobacterial infections” (priority 2020, dated 2023)",
  "key": {"MAC bacteria": {"test_system": "MAC bacteria", "format": "cell-based, Mycobacterium avium complex", "conditions": "2×MIC; starting inoculum 5.5 log10 CFU/ml", "experimental": "In vitro, efficacy was studied in static time-kill kinetics assays (at 2×minimum inhibitory concentration [MIC]), intended to mirror a desired peak serum concentration for all three antibiotics using an established assay. All experiments were performed with a starting inoculum of 5.5 log10 CFU/ml MAC bacteria, higher than the bacterial load expected in the airway secretions of patients with mild nodular-bronchiectatic disease due to MAC."}, "M. avium": {"test_system": "M. avium", "experiment": "MIC of antibiotics by broth microdilution, M. avium strains of Examples 3 and 4", "format": "cell-based, Mycobacterium avium subsp. hominissuis", "experimental": "Susceptibility testing was conducted using broth microdilution single and twofold dilutions as described in the literature. Suspensions were prepared by swabs on a growth plate with a sterile cotton swab, or were prepared in broth culture. The growth was transferred to a 4.5 mL of phosphate buffer solution (PBS) until the turbidity matched the density of a 0.5 McFarland standard. Suspensions were then vigorously mixed on a vortex mixer for 15 to 20 seconds. The final inoculum was prepared to a bacterial density of 10^5. The tube was inverted 8-10 times to mix the suspension.\n(§1) Following both the four-week and eight-week treatment period, mice were sacrificed, and lungs and spleens were harvested for CFU counts in each tissue and compared to CFUs recovered in the baseline and vehicle-treated groups. Tissue samples were plated with and without antibiotic on 7H10 agar. Antibiotic plates were made with minimum inhibitory concentrations (MICs) of 8 μg/ml for clarithromycin, and 0.25, μg/ml for both rifabutin (RFB) and clofazimine (CFZ). Plates were made for each of clarithromycin (CLR) alone, clarithromycin plus either rifabutin (CLR+RFB) or clofazimine (CLR+CFZ) and the three-drug combination (CLR+RFB+CFZ). All plates were incubated in a microbiological incubator at 37° C. for 14 days."}, "NTM": {"test_system": "NTM", "conditions": "mouse models of systemic and lung infection; preclinical literature; cited from earlier work"}, "[1]": {"test_system": "intracellular MAC in THP-1 monocytes", "experiment": "Hollow fiber system model of MAC (HFS-MAC): microbial kill", "format": "cell-based, Mycobacterium avium complex", "conditions": "HF experiments", "quoted_text": "The anti-mycobacterial effects of CLR, CFZ, and RFB was evaluated in the hollow fiber system model of MAC (HFS-MAC), which recapitulates the intrapulmonary concentrations of these antibiotics. The HFS-MAC allows for an assessment of the contribution of individual drug components in terms of anti-mycobacterial effects and enables exploration of potential synergy, additivity, or antagonism of different doses of drugs and combination regimens on the log-phase growth of intracellular MAC, for both microbial kill and resistance suppression.\nA two-part investigation was conducted to assess the contribution of components of various FDC products comprising CLR, CFZ, and RFB in terms of depth and rate of MAC kill and suppression of the emergence of resistance. The anti-MAC activity of each antibiotic component was evaluated as one-drug alone; as two-drug combinations and the three-drug combination. For each combination (singlet, doublet or triplet), the drug concentrations were sampled from the HF fluid bathing MAC-infected cells. […] Anti-MAC activity was evaluated by kill slopes defined as the kill rate constant (and the half-life of kill [reciprocal of the kill rate constant]) as well as the maximum kill, defined as the maximum reduction in MAC CFUs and compared between the different antibiotic combinations.\nMAC was grown into log-phase for 4 days, parallel with cultivation of THP-1 monocytes. The THP-1 cells were then infected with MAC overnight at a multiplicity of infection of 1:1. The THP-1 cells were washed to remove extracellular bacteria, and 20 mL of 1×10^6 (6.0 log10) cells/mL were inoculated into each HFS-MAC on Study Day 0. The peripheral compartment is the abluminal hollow fibers space that is also enclosed by the plastic, while the intraluminal space and flow path form the central compartment. […]"}, "M. avium strain 104": {"test_system": "M. avium strain 104", "experiment": "Mouse lung infection model, clarithromycin sensitive strain", "format": "in vivo, Mycobacterium avium subsp. hominissuis", "conditions": "for reduction in CFU relative to vehicle: 50 mg/kg", "experimental": "as §1"}, "MAC [2]": {"test_system": "MAC", "experiment": "Lung histopathology of mice infected with MAC and treated for four and eight weeks", "format": "in vivo, Mycobacterium avium complex", "conditions": "32 sections per group", "from_the_text": "Lung and Spleen Histopathology of Mice Infected with MAC and Treated with FDC Components Alone and in Combination for Four and Eight Weeks of Treatment\nEach of the experimental group had eight cut examined from each lung (8×2 lungs=16×2 mice=32 sections). Lungs were normal and not showing any pathology at pre-infection."}, "[3]": {"conditions": "epithelial lining fluid to total plasma/serum; cited from earlier work"}, "MAC [4]": {"test_system": "MAC", "experiment": "MIC of the MAC strains used in the HFS-MAC studies", "format": "cell-based, Mycobacterium avium complex", "conditions": "Mycobacterium avium", "experimental": "The MAC strain used in the HFS-MAC studies was ATCC strain 700898. The study center also had 5 well-characterized clinical strains that have undergone whole-genome sequencing and habituation to the HFS-MAC. Stock cultures of MAC were stored at −80° C. in Middlebrook 7H9 broth with 10% OADC and 10% glycerol. THP-1 monocytes were stored in liquid nitrogen and have been habituated for the HFS-MAC growth conditions."}, "[5]": {"experiment": "7-day mouse tolerability and PK study", "conditions": "for Cavg (clarithromycin): AUCtlast/24 h; for AUC(0-t) / Cmax / Tmax: female, C57BL/6, mouse, plasma, po, mouse plasma; for AUC(0-t): AUCtlast (clarithromycin); for Cmax: Cmax (clarithromycin); for Tmax: tmax (clarithromycin)", "experimental": "Sixty (60) female mice were tested, 12 per treatment groups: […]"}, "M. avium 104 biofilm": {"test_system": "M. avium 104 biofilm", "experiment": "In vitro biofilm model of infection", "format": "cell-based, Mycobacterium avium subsp. hominissuis", "conditions": "mean ± SD; CLR 1.9-4.3 μg/mL, RFB 0.04 μg/mL, CFZ 0.0005 μg/mL"}, "[6]": {"conditions": "100 mg/kg, Day 1, CLR 100 mg/kg alone, oral"}, "[7]": {"conditions": "100 mg/kg, Day 7, CLR 100 mg/kg alone, oral once daily"}, "[8]": {"conditions": "200 mg/kg, Day 1, CLR 200 mg/kg alone, oral"}, "[9]": {"conditions": "200 mg/kg, Day 1, CLR 200 mg/kg with RFB 60 mg/kg and CFZ 30 mg/kg, oral"}, "[10]": {"conditions": "200 mg/kg, Day 7, CLR 200 mg/kg alone, oral once daily"}, "[11]": {"conditions": "200 mg/kg, Day 7, CLR 200 mg/kg with RFB 60 mg/kg and CFZ 30 mg/kg, oral once daily"}},
  "data": [
    {"smiles": "CC[C@H]1OC(=O)[C@H](C)[C@@H](O[C@H]2C[C@@](C)(OC)[C@@H](O)[C@H](C)O2)[C@H](C)[C@@H](O[C@@H]2O[C@H](C)C[C@H](N(C)C)[C@H]2O)[C@](C)(OC)C[C@@H](C)C(=O)[C@H](C)[C@@H](O)[C@]1(C)O", "note": "[Clarithromycin, clarithromycin]", "values": [
      {"measurement": "activity as single drugs", "setting": "MAC bacteria", "value": "bacteriostatic activity"},
      {"measurement": "minimum inhibitory concentrations (MICs) used for antibiotic plates", "setting": "M. avium; 7H10 agar plates for tissue CFU counts", "value": 8, "unit": "µg/mL"},
      {"measurement": "MIC", "setting": "M. avium; Mycobacterium avium, clarithromycin resistant sub-subpopulation, 23 S RNA gene mutation", "value": "> 128", "unit": "µg/mL"},
      {"measurement": "Effective Dose", "setting": "NTM", "value": "50 to 100", "unit": "mg/kg/day"},
      {"measurement": "effect on CFUs / MAC killing, summary", "setting": "[1]", "value": "reductions in colony forming units"},
      {"measurement": "reduction in CFU relative to vehicle", "setting": "M. avium strain 104; after eight weeks of treatment", "value": "~2", "unit": "log unit"},
      {"measurement": "reduction in CFU relative to vehicle", "setting": "M. avium strain 104; after four weeks of treatment", "value": "approximately 1 log unit"},
      {"measurement": "CFUs resistant to clarithromycin in one animal", "setting": "M. avium strain 104; clarithromycin monotherapy treatment", "value": 200, "unit": "CFUs"},
      {"measurement": "Lung Histopathology Findings", "setting": "MAC [2]", "value": "Diffuse congestion; bacteria in granulomas"},
      {"measurement": "ELF:plasma ratio", "setting": "[3]", "value": "3.4-7.8"},
      {"measurement": "MIC", "setting": "MAC [4]; ATCC700898, MAC (ATCC 700898), laboratory strain", "value": 0.25, "unit": "µg/mL"},
      {"measurement": "MIC", "setting": "MAC [4]; Clinical strain #1", "value": 0.125, "unit": "µg/mL"},
      {"measurement": "MIC", "setting": "MAC [4]; Clinical strain #2", "value": 0.5, "unit": "µg/mL"},
      {"measurement": "MIC", "setting": "MAC [4]; Clinical strain #3", "value": 32, "unit": "µg/mL"},
      {"measurement": "MIC", "setting": "MAC [4]; Clinical strain #4", "value": 0.25, "unit": "µg/mL"},
      {"measurement": "MIC", "setting": "MAC [4]; Clinical strain #5", "value": 0.125, "unit": "µg/mL"},
      {"measurement": "Cavg (clarithromycin)", "setting": "[5]; Day 7, CLR 100 mg/kg alone", "value": 729, "unit": "ng/mL"},
      {"measurement": "Cavg (clarithromycin)", "setting": "[5]; Day 7, CLR 200 mg/kg alone", "value": "1,425 ng/mL"},
      {"measurement": "Cavg (clarithromycin)", "setting": "[5]; Day 7, CLR 200 mg/kg with RFB 60 mg/kg and CFZ 30 mg/kg", "value": "2,704 ng/mL"},
      {"measurement": "AUC(0-t)", "setting": "[5]; [6]", "value": 11100, "unit": "ng·h/mL"},
      {"measurement": "AUC(0-t)", "setting": "[5]; [7]", "value": 17500, "unit": "ng·h/mL"},
      {"measurement": "Cmax", "setting": "[5]; [6]", "value": 3400, "unit": "ng/mL"},
      {"measurement": "Cmax", "setting": "[5]; [7]", "value": 6130, "unit": "ng/mL"},
      {"measurement": "Tmax", "setting": "[5]; [6]", "value": 1, "unit": "h"},
      {"measurement": "Tmax", "setting": "[5]; [7]", "value": 1, "unit": "h"},
      {"measurement": "AUC(0-t)", "setting": "[5]; [8]", "value": 36200, "unit": "ng·h/mL"},
      {"measurement": "AUC(0-t)", "setting": "[5]; [9]", "value": 44200, "unit": "ng·h/mL"},
      {"measurement": "AUC(0-t)", "setting": "[5]; [10]", "value": 34200, "unit": "ng·h/mL"},
      {"measurement": "AUC(0-t)", "setting": "[5]; [11]", "value": 64900, "unit": "ng·h/mL"},
      {"measurement": "Cmax", "setting": "[5]; [8]", "value": 9110, "unit": "ng/mL"},
      {"measurement": "Cmax", "setting": "[5]; [9]", "value": 8370, "unit": "ng/mL"},
      {"measurement": "Cmax", "setting": "[5]; [10]", "value": 7430, "unit": "ng/mL"},
      {"measurement": "Cmax", "setting": "[5]; [11]", "value": 10100, "unit": "ng/mL"},
      {"measurement": "Tmax", "setting": "[5]; [8]", "value": 1, "unit": "h"},
      {"measurement": "Tmax", "setting": "[5]; [9]", "value": 1, "unit": "h"},
      {"measurement": "Tmax", "setting": "[5]; [10]", "value": 1, "unit": "h"},
      {"measurement": "Tmax", "setting": "[5]; [11]", "value": 1, "unit": "h"},
      {"measurement": "Colony Forming Unit Concentration, Four Days", "setting": "M. avium 104 biofilm", "value": "1.35 ± 0.3 × 10^7 CFU/mL"},
      {"measurement": "Colony Forming Unit Concentration, Seven Days", "setting": "M. avium 104 biofilm", "value": "1.07 ± 0.3 × 10^7 CFU/mL"}
    ]}
  ]
}
